≈ marks a conversion by molar mass, not a printed value.
conditions: buffer; pH 7.4; 200.0 µM

Structure (SMILES)	solubility kinetic [µg/mL]
O=C(COc1ccc(Cl)cc1)NCCc1ccccn1	37.2 (≈ 128 µM)
Cc1ccc(-c2nc(C#N)c(NCCCn3ccnc3)o2)cc1	0.9 (≈ 2.93 µM)
CCCCCC(=O)Nc1ccc(S(=O)(=O)Nc2nccc(C)n2)cc1	> 54.4
Cc1ccc2[nH]c(CNC(=O)c3ccccc3F)cc2c1	5.4 (≈ 19.1 µM)
O=C(NCc1ccccn1)c1cccc(S(=O)(=O)N2CCc3ccccc32)c1	21 (≈ 53.4 µM)
CC/C(=N\N1CCCCC1)c1c(O)[nH]c(=O)[nH]c1=O	> 39.9
COc1ccccc1C1(CCNC(C)c2cccs2)CCOC(C(C)C)C1 (stereo not given)	54.4 (≈ 140 µM)
CC(=O)Nc1ccc(S(=O)(=O)NCCC(=O)Nc2ncccc2C)cc1	> 56.5
COc1ccc(NC(=O)c2ccc(NC(=O)c3ccncc3)cc2)cc1	0.8 (≈ 2.3 µM)
O=C(c1ccccc1F)N1CCN=C1c1ccccc1	36.2 (≈ 135 µM)
CCOC(=O)C1=C(N)Oc2cc(O)ccc2C1c1cccc(Cl)c1 (stereo not given)	< 0.7
CCN(Cc1ccccc1)C(=O)c1oc2ccc(C)cc2c1C	3 (≈ 9.76 µM)
Cc1noc(C)c1C(=O)NCC(=O)Nc1ccccc1Br	> 52.8
O=C(CCc1ccccc1)N1CCN(c2ccccc2F)CC1	45.7 (≈ 146 µM)
CC1(C)CC2CC(C)(CN2C(=S)Nc2ccccc2F)C1 (stereo not given)	44 (≈ 144 µM)
COCc1cc(=O)[nH]c2cc(NC(=O)c3cccc(OC)c3)c(C)cc12	1.1 (≈ 3.12 µM)
Cc1noc(C)c1C(=O)Nc1sccc1C(N)=O	7.7 (≈ 29 µM)
O=C(COC(=O)c1ccco1)NCc1ccc(Cl)cc1	16.4 (≈ 55.8 µM)
N#CC(c1ccccc1)N1CCOCC1 (stereo not given)	20.7 (≈ 102 µM)
Cc1cccc(NC(=O)CSCC(=O)NCc2ccco2)c1	> 47.8
CCOC(=O)C1=C(CC)Nc2ccccc2N=C1NC(=O)c1cc(S(=O)(=O)N2CCOCC2)ccc1C	50.8 (≈ 96.5 µM)
O=S(=O)(c1ccc(Cl)cc1)N1CCN(c2ccccn2)CC1	0.5 (≈ 1.48 µM)

Structure (SMILES)	solubility kinetic [µg/mL]
CN(C)c1cc(-c2cccc([N+](=O)[O-])c2)oc(=O)c1Cl	1.3 (≈ 4.41 µM)
Cc1ccc(C(=O)OCC(=O)NCCc2ccc(S(N)(=O)=O)cc2)o1	> 55
CNC(=S)N1CCC(c2nc3ccccc3s2)CC1	> 43.7
Cc1ccc(C)c(N(CC(=O)NC2CCCC2)S(=O)(=O)c2ccccc2)c1	< 0.4
CN1CCCC(OC(=O)c2ccc(C#N)cc2)C1.Cl (stereo not given)	> 42.1
O=C(NCCCNC(=O)c1cnccn1)c1cccc(Cl)c1	47.1 (≈ 148 µM)
COCc1ccc(C(=O)NC2CCSc3ccccc32)cc1 (stereo not given)	16.8 (≈ 53.6 µM)
O=C(NCCc1cnc[nH]1)c1cccs1	> 33.2
c1ccc(SCc2nc3ccccc3s2)nc1	17.8 (≈ 68.9 µM)
Cc1cccc(N(Cc2cc(=O)[nH]c3ccccc23)C(=O)C(C)C)c1	36.3 (≈ 109 µM)
CSc1ccccc1C(=O)Nc1ccc2c(c1)CCC2	16.8 (≈ 59.3 µM)
CCOc1cccc(C(=O)Nc2cc(C)ccc2NC(=O)c2ccco2)c1	22 (≈ 60.4 µM)
CC(C)C(C)(C#N)NC(=O)CN1C(=O)NC2(CCCc3ccccc32)C1=O (stereo not given)	> 55.3
O=C1CCC(C(=O)N2CCOCC2)CN1Cc1ccc(Cl)cc1 (stereo not given)	> 50.5
Cc1ccc(Cl)cc1NS(=O)(=O)N1CCOCC1	> 43.6
CN(c1ccc(OCCOc2ccccc2Cl)cc1)S(=O)(=O)c1ccccc1	6.2 (≈ 14.8 µM)
CCc1ccc(C(=O)Nc2cc(C)ccc2F)s1	16.6 (≈ 63 µM)
CC(=O)c1ccc(OCC(=O)NCc2ccc(F)cc2)cc1	> 45.2
CC1CCC2(CC1)NC(=O)N(CC(=O)NCCc1ccccc1)C2=O (stereo not given)	> 51.5
CCOc1ccccc1NCc1cc(=O)oc2cc(C)ccc12	6.2 (≈ 20 µM)
COc1cccc2c1OCC(C(=O)Nc1nccs1)=C2	18.2 (≈ 63.1 µM)
COc1ccc(Cl)cc1NC(=O)Cn1c(=O)oc2ccccc21	1.2 (≈ 3.61 µM)

Structure (SMILES)	solubility kinetic [µg/mL]
CSc1sc(C(=O)NCC2CC2)c(-c2cccs2)c1C#N	8.6 (≈ 25.7 µM)
COc1ccc([N+](=O)[O-])c(OC)c1C(=O)NC(=O)Nc1nc(C)nc(C)n1	> 56.4
NC(=O)C1CC(=O)N(CCc2ccc(F)cc2)C1 (stereo not given)	> 37.5
CN(C)c1cccc2c1c(NS(=O)(=O)c1cn(C)cn1)nn2C	> 50.2
CCOC(=O)NN1C(=O)c2ccccc2NC1c1cccnc1 (stereo not given)	> 46.8
O=C(NCCCl)c1ccc(OCc2ccccc2)cc1Cl	37 (≈ 114 µM)
COCCNc1ncnc2c1cnn2Cc1ccccc1Cl	> 47.7
COc1ccc(C(=O)O/N=C(\N)c2cccc(C)c2)cc1OC	14.7 (≈ 46.8 µM)
CCCN1CCN(C(=O)c2ccc3nc(CC)c(CC)nc3c2)CC1	> 51.1
CCCCC(=O)NC1(C(F)(F)F)NC(=O)N(C)C1=O (stereo not given)	> 42.2
Nc1ccccc1C(=O)NC12CC3CC(CC(C3)C1)C2	28.7 (≈ 106 µM)
CCC(C)c1ccc(NC(=O)COC(=O)C2CCCC2)cc1 (stereo not given)	8.8 (≈ 29 µM)
Cc1nn(C)c(C)c1NC(=O)c1ccc(Br)o1	> 44.7
CC(C)[C@H](NC(=O)N1CCC(Cc2ccccc2)CC1)C(=O)O	> 47.8
O=[N+]([O-])c1ccc(Cl)cc1NCc1cccnc1	> 39.6
O=C(COC(=O)c1ccc2c(c1)OCCO2)NCCc1ccc(F)cc1	5.3 (≈ 14.7 µM)
CON(C)S(=O)(=O)c1cccc(C(=O)N(CC(=O)Nc2ccccc2C(F)(F)F)Cc2ccco2)c1	50.2 (≈ 95.5 µM)
CN(CC1COc2ccccc2O1)C(=O)CSc1nncs1 (stereo not given)	> 50.6
O=C(c1cc([N+](=O)[O-])ccc1N1CCCC1)N1CCCC1	> 43.4
CCCn1c(N)c(C(=O)CN2CCc3ccccc3C2)c(=O)n(C)c1=O	> 53.5
CCCCCCCc1c(O)nc(SCCN(C)C)[nH]c1=O.Cl	> 52.5
CC(=O)Nc1ccc(NS(=O)(=O)c2ccc(C)cc2)cc1[N+](=O)[O-]	> 52.4

Structure (SMILES)	solubility kinetic [µg/mL]
O=C(OCC(=O)N1CCN(S(=O)(=O)c2ccccc2)CC1)C1CCC1	54 (≈ 147 µM)
CC(C[N+](C)(C)C)OC(=O)C1(c2ccccc2)CCCC1 (stereo not given)	34.7
O=C(NC1=NCCCCC1)c1cccc2ccccc12	> 40
COc1cccc(OC)c1C(=O)NCCc1ccccc1	> 42.8
O=C(OCC(O)COc1ccccc1)c1ccc([N+](=O)[O-])cc1 (stereo not given)	43.7 (≈ 138 µM)
CC(C)NC(=O)c1ccc(S(=O)(=O)N(C)C)cc1	> 40.6
O=C1Nc2ccc(Cl)cc2C(C#CC2CC2)(C(F)(F)F)O1 (stereo not given)	19.6 (≈ 62.1 µM)
Cc1ccc(C(=O)NCCNC(=O)Cc2ccccc2)cn1	> 44.6
COc1ccc(CN=Cc2c(C(=O)O)[nH]c3ccccc23)cc1	> 46.3
CCC(C)NC(=O)CN1C(=O)C(CC)Sc2ccccc21 (stereo not given)	> 46
O=C(COC(=O)c1cccs1)NCCc1ccc(F)cc1	42.2 (≈ 137 µM)
COc1ccccc1Nc1ccc([N+](=O)[O-])cn1	8.1 (≈ 33 µM)
Cc1ccc(C(=O)N[C@H](C(=O)NC2CCCCC2)C(C)C)cc1	8 (≈ 25.3 µM)
OCCN1CCN(Cc2ccc3ccccc3c2)CC1	26.9 (≈ 99.5 µM)
CC(OC(=O)/C(C#N)=C/c1ccco1)C(=O)N(C)c1ccccc1 (stereo not given)	47.8 (≈ 147 µM)
Cc1ccc(NC(=O)NCc2ccccn2)c(C)c1	> 38.3
Cc1ccc(Nc2cc(C)c(O)c(C)c2)cc1	10.5 (≈ 46.2 µM)
COCCCN(C(=S)Nc1ccc(OC)cc1)C(C)c1ccncc1 (stereo not given)	> 53.9
Cc1ccc(NC(=O)c2c(-c3ccccc3Cl)noc2C)nc1	0.3 (≈ 0.915 µM)
